These results are taken from patent US20090324616A1, “DIFFERENTIAL CYTOKINE EXPRESSION IN HUMAN CANCER” (priority 2006, published 2009).

The subject of assay [1] is Primary (adherent) cells from human colon cancer specimens. As to the kind of experiment: Viability of primary (adherent) colon cancer cells exposed to drugs. In kind it is cell-based. Conditions: cisplatinum 300 ng/ml, oxaliplatin 100 μM, TRAIL 200 ng/ml; FIG. 6a. How it is done:
(§1) Survival and death assays. To evaluate apoptotic events the DNA staining and flow cytometry analysis were performed. The percentage of hypodiploid nuclei was evaluated as described in Stassi et al., Cancer Res. 2003, 63 (20):6784-90. Alternatively, human purified cancer cells were plated in 96-well plates in triplicate at 15,000 cells/well and cultured. The number of viable cells was detected by CellTiter Aqueous Assay Kit (Promega Corporation, WI, USA) following the instructions of manufacturer. HuT78 cells plated at […] and treated with CD95-activating antibody CH11 (200 ng/ml) were used as a positive control for cell death measurement.
(§2) To investigate the sensitivity of colon CSC to chemotherapeutic drugs, the viability of colon CSC spheroids exposed to cisplatinum (300 ng/ml) and oxaliplatin (100 μM) was measured, doses equivalent to those reached during cancer treatment in vivo. In addition, colon CSC were treated with the apoptosis-inducing death ligand TRAIL (200 ng/ml).

For assay [2], the system named is colon CSC. Kind of assay: Viability of colon CSC spheroids exposed to drugs. In kind it is cell-based, human. The settings on record: cisplatinum 300 ng/ml, oxaliplatin 100 μM, TRAIL 200 ng/ml, FIG. 6a. How it is done:
as §1, §2

Assay [3] concerns colon cancer generated by CSC. Kind of assay: IL-4 neutralization in vivo, colon tumours generated by CSC. Conditions: oxaliplatin i.p. once a week for 4 weeks, combined with control IgG; mice. From the text:
Tumours were allowed to grow for 10 days (size ˜0.2 cm^3) and then treated intra-tumourally with neutralising antibodies against IL-4 or control IgG twice a week for 3 weeks.

Assay [4] deals with T1, human Interleukin4 (IL4) (Homo sapiens, UniProt P05112).
T1 sequence (P05112 25-153): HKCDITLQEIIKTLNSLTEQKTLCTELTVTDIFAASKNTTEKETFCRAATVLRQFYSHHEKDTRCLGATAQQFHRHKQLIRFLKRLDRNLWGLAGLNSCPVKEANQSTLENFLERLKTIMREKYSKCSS
As to the kind of experiment: IL-4-pull down assay. Format: binding. The settings on record: 4 μg protein immobilized to Streptactin Sepharose, 400 ng IL4, 60 min; FIG. 10. How it is done:
To test for specific IL-4 binding of IL4R-Fc and IL4R-IL13R-Fc, 4 μg of both proteins, respectively, were immobilized to Streptactin Sepharose via their Strep-Tag. The immobilized proteins were subsequently incubated for 60 min with 400 ng of recombinantly expressed human Interleukin4 (IL4) in a total volume of 400 μl phosphate buffered saline. Subsequently the beads were washed and bound proteins were specifically eluted with desthiobiotin in a total volume of 40 μl elution buffer. Eluted proteins were finally analysed via SDS-PAGE and Silver staining.

Assay [5] deals with breast cancer stem cells. Kind of assay: Apoptosis of breast cancer spheres, combination with doxorubicin. In kind it is cell-based. Conditions: 10 μg pre-treatment 24 hrs, then 5 μM doxorubicin 24 hrs; for sensitisation for doxorubicin induced apoptosis compared with IL-4 specific antibody (positive control): FIG. 11B; for amount of apoptotic breast cancer stem cells: compared with Doxorubicin alone, FIG. 11A. How it is done:
To test for the ability of IL4R-Fc and IL4R-IL13R-Fc to induce apoptosis, both proteins were added to the growth medium of breast cancer stem cells either alone or in combination with doxorubicin. […] The cells were stained with orange acridine/ethidium bromide (red: dead cells; green: viable cells).

The subject of assay [6] is primary colon cancer cells. Kind of assay: Primary colon cancer cell viability (MTS), combination with oxaliplatin. In kind it is cell-based. The settings on record: 10 μg pre-treatment 24 hrs, then 100 μM oxaliplatin 24 hrs; FIG. 11C. On the procedure:
On primary colon cancer cells the IL4R-Fc and IL4R-IL13R-Fc constructs were tested in combination with oxaliplatin treatment. Primary colon cancer cells pre-treated with PBS (w/o) or 10 μg of IL4R-Fc, IL4R-IL13R-Fc or anti IL4-antibody for 24 hrs and successively exposed for another 24 hrs to 100 μM oxaliplatin. The graphs show the percentage of cell viability measured by MTS analysis (CellTiter 96, Aquos, Promega).

Assay [7] relates to colon, breast, gastric and lung normal cells. As to the kind of experiment: Cell growth of normal cells exposed to IL-4. In kind it is cell-based, human. The settings on record: 20 ng/ml of IL-4; FIG. 3b. How it is done:
(§3) Human primary cell purification. Normal and cancer tissues were digested for 2 hours with collagenase (1.5 mg/ml) (Gibco BRL., Grand Island, N.Y.) and hyaluronidase (20 μg/ml) (Sigma Chemical Co., St. Louis, Mo.) as previously described (1). Once digested, cells were maintained on plastic in DMEM medium (EuroClone Ltd., West York, UK) at 37° C. in a humidified atmosphere of 5% CO2. Following 12 further hours of culture, cancer cells were allowed to grow in monolayer for the immunocytochemistry or detached with trypsin+EDTA for functional, protein expression and gene transcript levels analyses. For colon and gastric cells culture, plastic was coated with[…] of collagen (Calbiochem GmbH, Darmstadt, Germany). […]
Survival and death assays. […] The percentage of hypodiploid nuclei was evaluated as described in Stassi et al., Cancer Res. 2003, 63 (20):6784-90. […] The number of viable cells was detected by CellTiter Aqueous Assay Kit (Promega Corporation, WI, USA) following the instructions of manufacturer. […]
In order to investigate the possible involvement of IL-4 on tumour cell survival, colon, breast, gastric and lung normal cells were exposed to 20 ng/ml of IL-4 and analyzed for cell growth.

For assay [8], the system named is cFLIP, PED/PEA-15, Bcl-xL and Bcl-2 in normal colon, breast, gastric and lung cells. As to the kind of experiment: Anti-apoptotic protein expression in normal cells pre-incubated with IL-4. Format: cell-based, human. The settings on record: gastric and lung cells pre-incubated with IL-4, FIG. 3c. On the procedure:
as §3
Protein isolation and western blotting analysis. […] Immunoblotting of Abs specific for actin (Ab-1, mouse IgM, Calbiochem, Darmstadt, Germany), CD95L (G2474, mouse IgG1, PharMingen, San Diego), CD95 (C-20, Santa Cruz Biotechnology), cFLIP (NF6 mouse IgG1, Alexis Biochemicals, Switzerland), PED/PEA-15 (rabbit IgG kindly provided by G. Condorelli), Bcl-2 (124, mouse IgG1, Upstate Biotechnology Inc.) and Bcl-XI (H-5, mouse IgG1, Santa Cruz Biotechnology) was detected by HRP-conjugated anti-mouse or anti-rabbit Abs (Amersham Biosciences UK Limited, England) and visualized with the chemiluminescence detection system (SuperSignal West Dura Extended duration Substrate, Pierce, Ill., USA). […]

In the case of `N.N.[Cl][Pt][Cl]` [cisplatinum], the “sensitivity in vitro (viability)” value in assay [1] is listed as “some sensitivity”. Besides, in assay [2], the “sensitivity to drug-induced apoptosis (viability)” value was “significantly resistant”.

With `O=C1[O][Pt]2([NH][C@@H]3CCCC[C@H]3[NH]2)[O]C1=O` [oxaliplatin], in assay [1], the “sensitivity in vitro (viability)” value is given as “some sensitivity”. The “sensitivity to drug-induced apoptosis (viability)” value in assay [2] is “significantly resistant”. In assay [3], the tumour size result is “reduced tumour size”.

Turning to “IL4R-Fc: shortened extracellular domain of IL-4-Receptor-alpha (aa1-aa224) fused to the Fc-part of human IGHG1, with Flexstreptag-II”, in assay [4], the “binding of human IL-4 (pull down, SDS-PAGE and Silver staining)” value is listed as “specific binding”. Further, in assay [5], the “sensitisation for doxorubicin induced apoptosis compared with IL-4 specific antibody (positive control)” value was “in the same range” and the “amount of apoptotic breast cancer stem cells” value was “clearly increased”. Also, the “cell viability (MTS) in comparison with oxaliplatin treatment alone” value in assay [6] is “reduced cell viability”.

“IL4R-IL13R-Fc: IL-4-Receptor-alpha extracellular domain fused to IL13-receptor alpha extracellular domain and Fc-part of human IGHG1, with Flexstreptag-II”: the “binding of human IL-4 (pull down, SDS-PAGE and Silver staining)” value in assay [4] is listed as “specific binding”. For the same molecule, in assay [5], the “sensitisation for doxorubicin induced apoptosis compared with IL-4 specific antibody (positive control)” value was “in the same range” and the “amount of apoptotic breast cancer stem cells” value was “clearly increased”. Further, the “cell viability (MTS) in comparison with oxaliplatin treatment alone” value in assay [6] is listed as “reduced cell viability”.

Regarding TRAIL, in assay [1], the “sensitivity in vitro (viability)” value is recorded as “some sensitivity”. In addition, the “sensitivity to drug-induced apoptosis (viability)” value in assay [2] is “significantly resistant”.

B1: IL-4: human recombinant IL-4 (Euroclone), used at 20 ng/ml (protein)
chain: HKCDITLQEIIKTLNSLTEQKTLCTELTVTDIFAASKNTTEKETFCRAATVLRQFYSHHEKDTRCLGATAQQFHRHKQLIRFLKRLDRNLWGLAGLNSCPVKEANQSTLENFLERLKTIMREKYSKCSS
Regarding B1, the “growth rate of colon, breast and lung normal cells” value in assay [7] is recorded as “significantly increased”. Further, in assay [8], the “protein levels of cFLIP, PED/PEA-15, Bcl-xL and Bcl-2” value is given as “increased”.
